Values joined by “and” are separate entries in the source; they are usually repeats but may differ in a detail not shown here. Equal values may be shown once.
System: SW 1271 complex spheroids, viability
Assay: Anticancer human tumor SW 1271 cell line growth inhibition [LSD1];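 further: spheroids exposed to agents for 7 days before luminescence read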;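 on viability, T/C: 100% = DMSO vehicle control viability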
Settings: for viability, T/C: stronger effect = lower value
Outline: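 Complex spheroids of tumor cells with HUVEC and human MSCs, exposed to iadademstat combined with other agents. Each agent tested in half-log steps from near clinical Cmax (else 10 microM top), DMSO ≤0.25%.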

[1] = curve of first compound, second compound 0.1 µM
[2] = curve of first compound, second compound 0.316 µM
[3] = curve of first compound, second compound 1 µM
[4] = curve of first compound, second compound 3.16 µM
[5] = curve of first compound, second compound 10 µM
[6] = second compound 0.1 µM, first compound 0.00316 µM
[7] = second compound 0.1 µM, first compound 0.01 µM
[8] = second compound 0.1 µM, first compound 0.0316 µM
[9] = second compound 0.1 µM, first compound 0.1 µM
[10] = second compound 0.316 µM, first compound 0.00316 µM
[11] = second compound 0.316 µM, first compound 0.01 µM
[12] = second compound 0.316 µM, first compound 0.0316 µM
[13] = second compound 0.316 µM, first compound 0.1 µM
[14] = second compound 1 µM, first compound 0.00316 µM
[15] = second compound 1 µM, first compound 0.01 µM
[16] = second compound 1 µM, first compound 0.0316 µM
[17] = second compound 1 µM, first compound 0.1 µM
[18] = second compound 3.16 µM, first compound 0.00316 µM
[19] = second compound 3.16 µM, first compound 0.01 µM
[20] = second compound 3.16 µM, first compound 0.0316 µM
[21] = second compound 3.16 µM, first compound 0.1 µM
[22] = second compound 10 µM, first compound 0.00316 µM
[23] = second compound 10 µM, first compound 0.01 µM
[24] = second compound 10 µM, first compound 0.0316 µM
[25] = second compound 10 µM, first compound 0.1 µM
[26] = second compound 0.1 µM, first compound 0.00949 µM
[27] = second compound 0.1 µM, first compound 0.03 µM
[28] = second compound 0.1 µM, first compound 0.0949 µM
[29] = second compound 0.1 µM, first compound 0.3 µM
[30] = second compound 0.316 µM, first compound 0.00949 µM
[31] = second compound 0.316 µM, first compound 0.03 µM
[32] = second compound 0.316 µM, first compound 0.0949 µM
[33] = second compound 0.316 µM, first compound 0.3 µM
[34] = second compound 1 µM, first compound 0.00949 µM
[35] = second compound 1 µM, first compound 0.03 µM
[36] = second compound 1 µM, first compound 0.0949 µM
[37] = second compound 1 µM, first compound 0.3 µM
[38] = second compound 3.16 µM, first compound 0.00949 µM
[39] = second compound 3.16 µM, first compound 0.03 µM
[40] = second compound 3.16 µM, first compound 0.0949 µM
[41] = second compound 3.16 µM, first compound 0.3 µM
[42] = second compound 10 µM, first compound 0.00949 µM
[43] = second compound 10 µM, first compound 0.03 µM
[44] = second compound 10 µM, first compound 0.0949 µM
[45] = second compound 10 µM, first compound 0.3 µM

`CC(C)CC(NC(=O)CNC(=O)c1cc(Cl)ccc1Cl)B1OC(=O)CC(CC(=O)O)(C(=O)O)O1` (stereo unspecified) + NC1CC1c1ccc(-c2cccc(O)c2)cc1 gave an IC50 [1] of 0.00486 µM, an IC50 [2] of 0.00467 µM and an IC50 [3] of 0.00438 µM. The IC50 [4] was 0.00394 µM, the IC50 [5] was 0.00436 µM and the viability, T/C (second compound 0.1 µM, first compound 0.000316 µM) was 86.8%. For the same compound, the viability, T/C (second compound 0.1 µM, first compound 0.001 µM) was 83.1%, the viability, T/C [6] was 76% and the viability, T/C [7] was 6.29%. The viability, T/C [8] was 0.38%, the viability, T/C [9] was 0.5% and the viability, T/C (second compound 0.316 µM, first compound 0.000316 µM) was 83.1%. It also gave a viability, T/C (second compound 0.316 µM, first compound 0.001 µM) of 85.3%, a viability, T/C [10] of 72.1% and a viability, T/C [11] of 6.64%. The viability, T/C [12] was 0.44%, the viability, T/C [13] was 0.17% and the viability, T/C (second compound 1 µM, first compound 0.000316 µM) was 75.1%. The viability, T/C (second compound 1 µM, first compound 0.001 µM) was 76.9%, the viability, T/C [14] was 67.8% and the viability, T/C [15] was 4.77%. For the same compound, the viability, T/C [16] was 0.26%, the viability, T/C [17] was 0.21% and the viability, T/C (second compound 3.16 µM, first compound 0.000316 µM) was 73.1%. It also gave a viability, T/C (second compound 3.16 µM, first compound 0.001 µM) of 72.1%, a viability, T/C [18] of 61% and a viability, T/C [19] of 3.44%. The viability, T/C [20] was 3.87%, the viability, T/C [21] was 0.21% and the viability, T/C (second compound 10 µM, first compound 0.000316 µM) was 66.1%. It also gave a viability, T/C (second compound 10 µM, first compound 0.001 µM) of 67.6%, a viability, T/C [22] of 70.9% and a viability, T/C [23] of 3.06%. It also gave a viability, T/C [24] of 0.15% and a viability, T/C [25] of 0.18%.

In the case of `NS(=O)(=O)OCC1CC(n2ccc3c(NC4CCc5ccccc54)ncnc32)CC1O` (stereo unspecified) + NC1CCC(NC2CC2c2ccccc2)CC1, the IC50 [1] is reported as over 3 µM, the IC50 [2] is reported as over 3 µM and the IC50 [3] is reported as over 3 µM. For the same compound, the IC50 [4] was over 3 µM, the IC50 [5] was over 3 µM and the viability, T/C [26] was 149%. The viability, T/C [27] was 125%, the viability, T/C [28] was 77.5% and the viability, T/C [29] was 84.7%. The viability, T/C (second compound 0.1 µM, first compound 0.949 µM) was 79.6%, the viability, T/C (second compound 0.1 µM, first compound 3 µM) was 74.8% and the viability, T/C [30] was 162%. The viability, T/C [31] was 131%, the viability, T/C [32] was 87.7% and the viability, T/C [33] was 73.6%. It also gave a viability, T/C (second compound 0.316 µM, first compound 0.949 µM) of 77.5%, a viability, T/C (second compound 0.316 µM, first compound 3 µM) of 77.8% and a viability, T/C [34] of 164%. For the same compound, the viability, T/C [35] was 115%, the viability, T/C [36] was 82.4% and the viability, T/C [37] was 66.5%. It also gave a viability, T/C (second compound 1 µM, first compound 0.949 µM) of 80.7%, a viability, T/C (second compound 1 µM, first compound 3 µM) of 75.5% and a viability, T/C [38] of 132%. The viability, T/C [39] was 113%, the viability, T/C [40] was 93.8% and the viability, T/C [41] was 75.2%. The viability, T/C (second compound 3.16 µM, first compound 0.949 µM) was 69.8%, the viability, T/C (second compound 3.16 µM, first compound 3 µM) was 70.1% and the viability, T/C [42] was 163%. For the same compound, the viability, T/C [43] was 124%, the viability, T/C [44] was 86.5% and the viability, T/C [45] was 73.9%. The viability, T/C (second compound 10 µM, first compound 0.949 µM) was 73.9% and the viability, T/C (second compound 10 µM, first compound 3 µM) was 70.2%.

`COc1cc(Nc2ncc3c(n2)-c2ccc(Cl)cc2C(c2c(F)cccc2OC)=NC3)ccc1C(=O)O` + NC1CCC(NC2CC2c2ccccc2)CC1 gave an IC50 [1] of 0.2 µM, an IC50 [2] of 0.148 µM and an IC50 [3] of 0.184 µM. For the same compound, the IC50 [4] was 0.175 µM, the IC50 [5] was 0.186 µM and the viability, T/C [6] was 84.2%. The viability, T/C [7] was 78.2%, the viability, T/C [8] was 80.3% and the viability, T/C [9] was 59.5%. It also gave a viability, T/C (second compound 0.1 µM, first compound 0.316 µM) of 42.9%, a viability, T/C (second compound 0.1 µM, first compound 1 µM) of 16% and a viability, T/C [10] of 81.2%. The viability, T/C [11] was 80.3%, the viability, T/C [12] was 75.9% and the viability, T/C [13] was 55.4%. It also gave a viability, T/C (second compound 0.316 µM, first compound 0.316 µM) of 36%, a viability, T/C (second compound 0.316 µM, first compound 1 µM) of 13.5% and a viability, T/C [14] of 83.5%. For the same compound, the viability, T/C [15] was 81.9%, the viability, T/C [16] was 85.4% and the viability, T/C [17] was 58.3%. It also gave a viability, T/C (second compound 1 µM, first compound 0.316 µM) of 40.4%, a viability, T/C (second compound 1 µM, first compound 1 µM) of 13.7% and a viability, T/C [18] of 97.3%. The viability, T/C [19] was 80.4%, the viability, T/C [20] was 84.8% and the viability, T/C [21] was 62.1%. The viability, T/C (second compound 3.16 µM, first compound 0.316 µM) was 36.3%, the viability, T/C (second compound 3.16 µM, first compound 1 µM) was 15.1% and the viability, T/C [22] was 81.3%. The viability, T/C [23] was 80.5%, the viability, T/C [24] was 79.7% and the viability, T/C [25] was 59.2%. The viability, T/C (second compound 10 µM, first compound 0.316 µM) was 40.7% and the viability, T/C (second compound 10 µM, first compound 1 µM) was 14.1%.

In the case of `CC[C@@]1(O)C(=O)OCc2c1cc1n(c2=O)Cc2cc3c(CN(C)C)c(O)ccc3nc2-1`, the viability, T/C (compound 0.000316 µM) is reported as 88.2% and 98.2%, the viability, T/C (compound 0.001 µM) is reported as 89.6% and 109% and the viability, T/C (compound 0.00316 µM) is reported as 72.7% and 75.3%. The viability, T/C (compound 0.01 µM) was 66.6% and 85.6%, the viability, T/C (compound 0.0316 µM) was 58.7% and 65.7% and the viability, T/C (compound 0.1 µM) was 49.4% and 53.2%. The IC50 (curve of compound) was over 0.1 µM.

In the case of `Nc1ncn(C2CC(O)C(CO)S2)c(=O)n1` (stereo unspecified), the viability, T/C (compound 0.000949 µM) is reported as 105% and 83.6%, the viability, T/C (compound 0.003 µM) is reported as 112% and 88.6% and the viability, T/C (compound 0.00949 µM) is reported as 99.5% and 86.3%. The viability, T/C (compound 0.03 µM) was 108% and 83.2%, the viability, T/C (compound 0.0949 µM) was 94.7% and 91.1% and the viability, T/C (compound 0.3 µM) was 88.5% and 71.2%. The IC50 (curve of compound) was over 0.3 µM.

`Nc1ccn(C2OC(CO)C(O)C2(F)F)c(=O)n1` (stereo unspecified) + NC1CC1c1ccc(-c2cccc(O)c2)cc1 was tested, and the IC50 [1] was over 0.3 µM, the IC50 [2] was over 0.3 µM and the IC50 [3] was over 0.3 µM. The IC50 [4] was over 0.3 µM, the IC50 [5] was over 0.3 µM and the viability, T/C (second compound 0.1 µM, first compound 0.000949 µM) was 76.7%. The viability, T/C (second compound 0.1 µM, first compound 0.003 µM) was 68.7%, the viability, T/C [26] was 63.3% and the viability, T/C [27] was 54%. The viability, T/C [28] was 64.9%, the viability, T/C [29] was 58% and the viability, T/C (second compound 0.316 µM, first compound 0.000949 µM) was 65.9%. The viability, T/C (second compound 0.316 µM, first compound 0.003 µM) was 54.7%, the viability, T/C [30] was 55.7% and the viability, T/C [31] was 57.4%. It also gave a viability, T/C [32] of 54.3%, a viability, T/C [33] of 64.2% and a viability, T/C (second compound 1 µM, first compound 0.000949 µM) of 62.1%. For the same compound, the viability, T/C (second compound 1 µM, first compound 0.003 µM) was 64.2%, the viability, T/C [34] was 57.5% and the viability, T/C [35] was 55.5%. For the same compound, the viability, T/C [36] was 58.5%, the viability, T/C [37] was 61.3% and the viability, T/C (second compound 3.16 µM, first compound 0.000949 µM) was 65.3%. It also gave a viability, T/C (second compound 3.16 µM, first compound 0.003 µM) of 58.3%, a viability, T/C [38] of 51.4% and a viability, T/C [39] of 52%. For the same compound, the viability, T/C [40] was 56.2%, the viability, T/C [41] was 47.3% and the viability, T/C (second compound 10 µM, first compound 0.000949 µM) was 62.1%. It also gave a viability, T/C (second compound 10 µM, first compound 0.003 µM) of 57.7%, a viability, T/C [42] of 51.1% and a viability, T/C [43] of 60.1%. It also gave a viability, T/C [44] of 48.5% and a viability, T/C [45] of 51.2%.

`COc1cc(C2c3cc4c(cc3C(OC3OC5COC(C)OC5C(O)C3O)C3COC(=O)C23)OCO4)cc(OC)c1O` (stereo unspecified) was tested, and the viability, T/C (compound 0.00949 µM) was 84.9% and 100%, the viability, T/C (compound 0.03 µM) was 79.2% and 82.9% and the viability, T/C (compound 0.0949 µM) was 72.4% and 64.1%. The viability, T/C (compound 0.3 µM) was 83.9% and 64.4%, the viability, T/C (compound 0.949 µM) was 62.5% and 66.3% and the viability, T/C (compound 3 µM) was 54.7% and 53.3%. It also gave an IC50 (curve of compound) of over 3 µM.

From PubChem BioAssay AID1918941 (Molecular Pharmacology Branch, DTP, NCI, 2023)
